# Test results reported in PubChem BioAssay AID2060326 (Molecular Pharmacology Branch, DTP, NCI, 2025).
# Tested on: MDA-MB-468 multi-cell spheroids, viability
# Test: Anticancer human tumor MDA-MB-468 cell line growth inhibition [IpAb];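 also: spheroids exposed to agents for seven days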;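 as to viability, T/C: 100% = DMSO vehicle control viability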
# Details: for IC50: curve of first compound; for viability, T/C: stronger effect = lower value
# Outline: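 Spheroids of 60% malignant cells, 25% HUVEC and 15% MSC were exposed to targeted agents combined with ipatasertib or abemaciclib. Doses started at or near clinical Cmax (10 microM when unknown) and fell in half-log steps.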
# [1] = second compound 0.01 µM, first compound 0.0316 µM
# [2] = second compound 0.01 µM, first compound 0.1 µM
# [3] = second compound 0.01 µM, first compound 0.316 µM
# [4] = second compound 0.01 µM, first compound 1 µM
# [5] = second compound 0.01 µM, first compound 3.16 µM
# [6] = second compound 0.01 µM, first compound 10 µM
# [7] = second compound 0.0316 µM, first compound 0.0316 µM
# [8] = second compound 0.0316 µM, first compound 0.1 µM
# [9] = second compound 0.0316 µM, first compound 0.316 µM
# [10] = second compound 0.0316 µM, first compound 1 µM
# [11] = second compound 0.0316 µM, first compound 3.16 µM
# [12] = second compound 0.0316 µM, first compound 10 µM
# [13] = second compound 0.1 µM, first compound 0.0316 µM
# [14] = second compound 0.1 µM, first compound 0.1 µM
# [15] = second compound 0.1 µM, first compound 0.316 µM
# [16] = second compound 0.1 µM, first compound 1 µM
# [17] = second compound 0.1 µM, first compound 3.16 µM
# [18] = second compound 0.1 µM, first compound 10 µM
# [19] = second compound 0.316 µM, first compound 0.0316 µM
# [20] = second compound 0.316 µM, first compound 0.1 µM
# [21] = second compound 0.316 µM, first compound 0.316 µM
# [22] = second compound 0.316 µM, first compound 1 µM
# [23] = second compound 0.316 µM, first compound 3.16 µM
# [24] = second compound 0.316 µM, first compound 10 µM
# [25] = second compound 1 µM, first compound 0.0316 µM
# [26] = second compound 1 µM, first compound 0.1 µM
# [27] = second compound 1 µM, first compound 0.316 µM
# [28] = second compound 1 µM, first compound 1 µM
# [29] = second compound 1 µM, first compound 3.16 µM
# [30] = second compound 1 µM, first compound 10 µM
smiles,measurement,setting,value
C=CCn1c(=O)c2cnc(Nc3ccc(N4CCN(C)CC4)cc3)nc2n1-c1cccc(C(C)(C)O)n1 + CCN1CCN(Cc2ccc(Nc3ncc(F)c(-c4cc(F)c5nc(C)n(C(C)C)c5c4)n3)nc2)CC1,IC50,second compound 0.01 µM,467 nM
same,IC50,second compound 0.0316 µM,461 nM
same,IC50,second compound 0.1 µM,408 nM
same,IC50,second compound 0.316 µM,560 nM
same,IC50,second compound 1 µM,417 nM
same,"viability, T/C",[1],108%
same,"viability, T/C",[2],75.5%
same,"viability, T/C",[3],72.8%
same,"viability, T/C",[4],6.04%
same,"viability, T/C",[5],2.55%
same,"viability, T/C",[6],2.34%
same,"viability, T/C",[7],96.3%
same,"viability, T/C",[8],87.9%
same,"viability, T/C",[9],71.3%
same,"viability, T/C",[10],6.12%
same,"viability, T/C",[11],2.93%
same,"viability, T/C",[12],2.24%
same,"viability, T/C",[13],121%
same,"viability, T/C",[14],93.1%
same,"viability, T/C",[15],67.3%
same,"viability, T/C",[16],5.75%
same,"viability, T/C",[17],3.42%
same,"viability, T/C",[18],2.91%
same,"viability, T/C",[19],105%
same,"viability, T/C",[20],102%
same,"viability, T/C",[21],89.7%
same,"viability, T/C",[22],9.63%
same,"viability, T/C",[23],3.67%
same,"viability, T/C",[24],2.2%
same,"viability, T/C",[25],72.3%
same,"viability, T/C",[26],79.5%
same,"viability, T/C",[27],63.5%
same,"viability, T/C",[28],6.76%
same,"viability, T/C",[29],2.84%
same,"viability, T/C",[30],1.01%
CC(C)n1nc(-c2ccc3oc(N)nc3c2)c2c(N)ncnc21 + CCN1CCN(Cc2ccc(Nc3ncc(F)c(-c4cc(F)c5nc(C)n(C(C)C)c5c4)n3)nc2)CC1,IC50,second compound 0.01 µM,11.5 nM
same,IC50,second compound 0.0316 µM,10.4 nM
same,IC50,second compound 0.1 µM,11.2 nM
same,IC50,second compound 0.316 µM,14.7 nM
same,IC50,second compound 1 µM,11.6 nM
same,"viability, T/C","second compound 0.01 µM, first compound 0.000316 µM",90.8%
same,"viability, T/C","second compound 0.01 µM, first compound 0.001 µM",90%
same,"viability, T/C","second compound 0.01 µM, first compound 0.00316 µM",69.7%
same,"viability, T/C","second compound 0.01 µM, first compound 0.01 µM",57.6%
same,"viability, T/C",[1],24.9%
same,"viability, T/C",[2],10.6%
same,"viability, T/C","second compound 0.0316 µM, first compound 0.000316 µM",95.6%
same,"viability, T/C","second compound 0.0316 µM, first compound 0.001 µM",81.4%
same,"viability, T/C","second compound 0.0316 µM, first compound 0.00316 µM",67%
same,"viability, T/C","second compound 0.0316 µM, first compound 0.01 µM",56%
same,"viability, T/C",[7],26.4%
same,"viability, T/C",[8],11.6%
same,"viability, T/C","second compound 0.1 µM, first compound 0.000316 µM",99%
same,"viability, T/C","second compound 0.1 µM, first compound 0.001 µM",78.3%
same,"viability, T/C","second compound 0.1 µM, first compound 0.00316 µM",75.8%
same,"viability, T/C","second compound 0.1 µM, first compound 0.01 µM",54%
same,"viability, T/C",[13],26.9%
same,"viability, T/C",[14],10.2%
same,"viability, T/C","second compound 0.316 µM, first compound 0.000316 µM",91.4%
same,"viability, T/C","second compound 0.316 µM, first compound 0.001 µM",88.3%
same,"viability, T/C","second compound 0.316 µM, first compound 0.00316 µM",86%
same,"viability, T/C","second compound 0.316 µM, first compound 0.01 µM",54.7%
same,"viability, T/C",[19],35%
same,"viability, T/C",[20],14.5%
same,"viability, T/C","second compound 1 µM, first compound 0.000316 µM",75.2%
same,"viability, T/C","second compound 1 µM, first compound 0.001 µM",81.3%
same,"viability, T/C","second compound 1 µM, first compound 0.00316 µM",64.2%
same,"viability, T/C","second compound 1 µM, first compound 0.01 µM",53.2%
same,"viability, T/C",[25],34%
same,"viability, T/C",[26],20%
CC1(C)CCC(CN2CCN(c3ccc(C(=O)NS(=O)(=O)c4ccc(NCC5CCOCC5)c([N+](=O)[O-])c4)c(Oc4cnc5[nH]ccc5c4)c3)CC2)=C(c2ccc(Cl)cc2)C1 + CCN1CCN(Cc2ccc(Nc3ncc(F)c(-c4cc(F)c5nc(C)n(C(C)C)c5c4)n3)nc2)CC1,IC50,second compound 0.01 µM,3130 nM
same,IC50,second compound 0.0316 µM,4240 nM
same,IC50,second compound 0.1 µM,3040 nM
same,IC50,second compound 0.316 µM,4280 nM
same,IC50,second compound 1 µM,2040 nM
same,"viability, T/C",[1],96.2%
same,"viability, T/C",[2],81.1%
same,"viability, T/C",[3],82.5%
same,"viability, T/C",[4],85%
same,"viability, T/C",[5],49.7%
same,"viability, T/C",[6],10.2%
same,"viability, T/C",[7],88.6%
same,"viability, T/C",[8],86.9%
same,"viability, T/C",[9],89.8%
same,"viability, T/C",[10],74.8%
same,"viability, T/C",[11],66.2%
same,"viability, T/C",[12],9.92%
same,"viability, T/C",[13],92.1%
same,"viability, T/C",[14],96.6%
same,"viability, T/C",[15],105%
same,"viability, T/C",[16],109%
same,"viability, T/C",[17],48.1%
same,"viability, T/C",[18],9.29%
same,"viability, T/C",[19],99.3%
same,"viability, T/C",[20],109%
same,"viability, T/C",[21],94.9%
same,"viability, T/C",[22],94.1%
same,"viability, T/C",[23],64.1%
same,"viability, T/C",[24],9.61%
same,"viability, T/C",[25],75.4%
same,"viability, T/C",[26],86.5%
same,"viability, T/C",[27],78.8%
same,"viability, T/C",[28],77.9%
same,"viability, T/C",[29],32.9%
same,"viability, T/C",[30],5.14%
CCCS(=O)(=O)Nc1ccc(F)c(C(=O)c2c[nH]c3ncc(-c4ccc(Cl)cc4)cc23)c1F + CCN1CCN(Cc2ccc(Nc3ncc(F)c(-c4cc(F)c5nc(C)n(C(C)C)c5c4)n3)nc2)CC1,IC50,second compound 0.01 µM,> 10000 nM
same,IC50,second compound 0.0316 µM,> 10000 nM
same,IC50,second compound 0.1 µM,> 10000 nM
same,IC50,second compound 0.316 µM,> 10000 nM
same,IC50,second compound 1 µM,5030 nM
same,"viability, T/C",[1],89.8%
same,"viability, T/C",[2],88.3%
same,"viability, T/C",[3],101%
same,"viability, T/C",[4],124%
same,"viability, T/C",[5],108%
same,"viability, T/C",[6],88.7%
same,"viability, T/C",[7],104%
same,"viability, T/C",[8],91.1%
same,"viability, T/C",[9],99.1%
same,"viability, T/C",[10],113%
same,"viability, T/C",[11],79.5%
same,"viability, T/C",[12],57.5%
same,"viability, T/C",[13],106%
same,"viability, T/C",[14],114%
same,"viability, T/C",[15],104%
same,"viability, T/C",[16],117%
same,"viability, T/C",[17],99.5%
same,"viability, T/C",[18],51.4%
same,"viability, T/C",[19],102%
same,"viability, T/C",[20],103%
same,"viability, T/C",[21],104%
same,"viability, T/C",[22],98.4%
same,"viability, T/C",[23],111%
same,"viability, T/C",[24],64.1%
same,"viability, T/C",[25],76.9%
same,"viability, T/C",[26],78.4%
same,"viability, T/C",[27],85.7%
same,"viability, T/C",[28],74.2%
same,"viability, T/C",[29],66.5%
same,"viability, T/C",[30],26.2%
Cn1cnc2c(F)c(Nc3ccc(Br)cc3Cl)c(C(=O)NOCCO)cc21 + CCN1CCN(Cc2ccc(Nc3ncc(F)c(-c4cc(F)c5nc(C)n(C(C)C)c5c4)n3)nc2)CC1,IC50,second compound 0.01 µM,1130 nM
same,IC50,second compound 0.0316 µM,920 nM
same,IC50,second compound 0.1 µM,798 nM
same,IC50,second compound 0.316 µM,601 nM
same,IC50,second compound 1 µM,152 nM
same,"viability, T/C","second compound 0.01 µM, first compound 0.00949 µM",102%
same,"viability, T/C","second compound 0.01 µM, first compound 0.03 µM",79.5%
same,"viability, T/C","second compound 0.01 µM, first compound 0.0949 µM",77.7%
same,"viability, T/C","second compound 0.01 µM, first compound 0.3 µM",73.3%
same,"viability, T/C","second compound 0.01 µM, first compound 0.949 µM",55.1%
same,"viability, T/C","second compound 0.01 µM, first compound 3 µM",31.5%
same,"viability, T/C","second compound 0.0316 µM, first compound 0.00949 µM",83.7%
same,"viability, T/C","second compound 0.0316 µM, first compound 0.03 µM",76.3%
same,"viability, T/C","second compound 0.0316 µM, first compound 0.0949 µM",73.6%
same,"viability, T/C","second compound 0.0316 µM, first compound 0.3 µM",60.8%
same,"viability, T/C","second compound 0.0316 µM, first compound 0.949 µM",52%
same,"viability, T/C","second compound 0.0316 µM, first compound 3 µM",29.7%
same,"viability, T/C","second compound 0.1 µM, first compound 0.00949 µM",95.8%
same,"viability, T/C","second compound 0.1 µM, first compound 0.03 µM",73.6%
same,"viability, T/C","second compound 0.1 µM, first compound 0.0949 µM",81.3%
same,"viability, T/C","second compound 0.1 µM, first compound 0.3 µM",58.8%
same,"viability, T/C","second compound 0.1 µM, first compound 0.949 µM",52.4%
same,"viability, T/C","second compound 0.1 µM, first compound 3 µM",28.4%
same,"viability, T/C","second compound 0.316 µM, first compound 0.00949 µM",108%
same,"viability, T/C","second compound 0.316 µM, first compound 0.03 µM",89.8%
same,"viability, T/C","second compound 0.316 µM, first compound 0.0949 µM",75.5%
same,"viability, T/C","second compound 0.316 µM, first compound 0.3 µM",63.3%
same,"viability, T/C","second compound 0.316 µM, first compound 0.949 µM",51.1%
same,"viability, T/C","second compound 0.316 µM, first compound 3 µM",16.8%
same,"viability, T/C","second compound 1 µM, first compound 0.00949 µM",92.7%
same,"viability, T/C","second compound 1 µM, first compound 0.03 µM",69%
same,"viability, T/C","second compound 1 µM, first compound 0.0949 µM",58.9%
same,"viability, T/C","second compound 1 µM, first compound 0.3 µM",43.5%
same,"viability, T/C","second compound 1 µM, first compound 0.949 µM",18.8%
same,"viability, T/C","second compound 1 µM, first compound 3 µM",3.98%
